In brackets after ≈: the same amount, converted by molar mass. Like-named read-outs stand apart in the source and are kept apart here. Non-standard residues stand in square brackets, D forms with d. Residues, ends and D or L forms follow the SMILES beside them. Aoc = NCCCCCCCC(=O)O; Ava = NCCCCC(=O)O; βAla = NCCC(=O)O
Legend:
[1] = tested on: C. auris; settings: 24 h
[2] = tested on: Scedosporium spp.; settings: 72 h
[3] = tested on: Lomentospora prolificans
[4] = tested on: C. glabrata; settings: 24 h
[5] = tested on: C. dubliniensis; settings: 24 h
[6] = in vitro; settings: human, human serum, full strength
[7] = tested on: Coccidioides species; settings: 48-72 hrs, >50% inhibition
[8] = tested on: C. albicans; settings: 24 h
[9] = tested on: C. gattii; settings: 72 h
[10] = tested on: Paecilomyces variotii; settings: 48 h
[11] = tested on: C. neoformans; settings: 72 h
[12] = tested on: C. tropicalis; settings: 24 h
[13] = tested on: C. parapsilosis; settings: 24 h
[14] = tested on: Rhizopus arrhizus; settings: 24 h
[15] = tested on: C. krusei; settings: 24 h
[16] = Acute toxicity in CD-1 mice; settings: both sexes, mouse, in vivo
Experimental: Acute toxicity and subacute toxicity of ACPs were tested in CD-1 mice. In the acute toxicity study, groups of CD-1 male or female mice were administered single intravenous or intraperitoneal escalating doses (n=2-3 per dose) of the peptides dissolved in normal saline for injection or in phosphate buffered saline. The intravenous dose was administered via tail vein with a slow push over 15-20 seconds. Doses were escalated based on tolerability.

[17] = in vitro; settings: human, EC50 cytotoxicity in HepG2, intracellular ATP assay
[18] = tested on: Fusarium spp.; settings: 48 h
[19] = tested on: Candida spp.
[20] = tested on: Staphylococcus aureus ATCC 29213; type: cell-based
[21] = tested on: Pseudomonas aeruginosa ATCC 27853; type: cell-based
[22] = tested on: Escherichia coli ATCC 25922; type: cell-based
[23] = tested on: Cryptococcus spp.
[24] = mice
[25] = Subacute toxicity in CD-1 mice; type: in vivo; settings: daily IP for 7 days
Experimental: In the subacute toxicity study, groups of CD-1 male or female mice were administered seven consecutive daily intraperitoneal doses (n=3 per dose) of the peptides (SEQ ID NO: 7, SEQ ID NO: 29, SEQ ID NO: 53) dissolved in normal saline for injection. Each peptide was evaluated at 2 to 3 dose levels ranging from 2.5 to 7.5 mg/kg/day. Mice were weighed at least once daily and observed at least twice daily for any abnormal findings and determination of overall health. At 24 hrs after the last dose, mice were humanely euthanized, with blood collected through cardiac puncture into K2EDTA microtainers to assess hematological parameters. All three peptides were tolerated at the highest dose evaluated (7.5 mg/kg/day) for 7 days.

Row | SMILES | MIC C. auris [1] | MIC Range Scedosporium spp. [2] | MIC Range Lomentospora prolificans [3] | MIC C. glabrata [4] | MIC C. dubliniensis [5] | remaining at 2 h, 5 μM [6] | MIC C. albicans [8] | MIC C. gattii [9] | MIC C. neoformans [11] | MIC C. tropicalis [12] | MIC C. parapsilosis [13] | MIC C. krusei [15] | EC50 [17] | MIC Range Fusarium spp. [18] | MIC50 Candida species [19] | MIC90 Candida species [19] | MIC Staphylococcus aureus [20] | MIC Pseudomonas aeruginosa [21] | MIC Escherichia coli [22] | further results
1 | N=C(N)NCCC[C@@H](N)C(=O)N[C@@H](CCCNC(=N)N)C(=O)N[C@H](CCCNC(=N)N)C(=O)NCCC(=O)N[C@H](CCCNC(=N)N)C(=O)N[C@@H](CCCNC(=N)N)C(=O)N[C@H](CCCNC(=N)N)C(=O)NCCC(=O)N[C@H](CCCNC(=N)N)C(=O)N[C@@H](CCCNC(=N)N)C(=O)N[C@H](CCCNC(=N)N)C(=O)N[C@@H](CCCNC(=N)N)C(=O)NCCC(=O)N[C@H](CCCNC(=N)N)C(=O)N[C@@H](CCCNC(=N)N)C(=O)N[C@H](CCCNC(=N)N)C(=O)N[C@@H](CCCNC(=N)N)C(=O)O [SEQ ID NO: 8, rRr-(Apr)-rRr-(Apr)-rRrR-(Apr)-rRrR] (H-[dR]R[dR][βAla][dR]R[dR][βAla][dR]R[dR]R[βAla][dR]R[dR]R-OH) | 4 µg/mL (≈ 1.65 µM) | ≤0.12 µg/mL | ≤0.12 µg/mL | 0.5 µg/mL (≈ 0.207 µM) | 0.25 µg/mL (≈ 0.103 µM) | ~100% | 0.5 µg/mL (≈ 0.207 µM) | 0.25 µg/mL (≈ 0.103 µM) | 0.5 µg/mL (≈ 0.207 µM) | 0.25 µg/mL (≈ 0.103 µM) | 0.25 µg/mL (≈ 0.103 µM) | 0.5 µg/mL (≈ 0.207 µM) | > 300 µg/mL | 0.25 to 0.5 µg/mL | – | – | – | – | – | MIC Range Coccidioides species ([7]; N = 3 strains): 0.25 to 0.5 µg/mL; MIC Range Paecilomyces variotii [10]: 0.25 µg/mL (≈ 0.103 µM); MIC Range Rhizopus arrhizus [14]: 2 to 32 µg/mL; MTD ([16]; single IP dose, read-out: Tolerated single intraperitoneal dose): 10 to 15 mg/kg; MTD ([16]; single IV dose via tail vein, read-out: Tolerated single intravenous dose): 5 to 7.5 mg/kg
2 | N=C(N)NCCC[C@H](NC(=O)[C@H](CCCNC(=N)N)NC(=O)[C@H](CCCNC(=N)N)NC(=O)[C@H](CCCNC(=N)N)NC(=O)CCNC(=O)[C@H](CCCNC(=N)N)NC(=O)[C@H](CCCNC(=N)N)NC(=O)[C@H](CCCNC(=N)N)NC(=O)[C@H](CCCNC(=N)N)NC(=O)CCNC(=O)[C@H](CCCNC(=N)N)NC(=O)[C@H](CCCNC(=N)N)NC(=O)[C@H](CCCNC(=N)N)NC(=O)CCNC(=O)[C@H](CCCNC(=N)N)NC(=O)[C@H](CCCNC(=N)N)NC(=O)[C@@H](N)CCCNC(=N)N)C(N)=O [SEQ ID NO: 13, RRR-(Apr)-RRR-(Apr)-RRRR-(Apr)-RRRR-NH2] (H-RRR[βAla]RRR[βAla]RRRR[βAla]RRRR-NH2) | 4 µg/mL (≈ 1.66 µM) | 0.25 µg/mL (≈ 0.103 µM) | – | 32 µg/mL (≈ 13.2 µM) | 2 µg/mL (≈ 0.828 µM) | ~40% | 8 µg/mL (≈ 3.31 µM) | 0.5 µg/mL (≈ 0.207 µM) | 1 µg/mL (≈ 0.414 µM) | 0.5 µg/mL (≈ 0.207 µM) | 0.25 µg/mL (≈ 0.103 µM) | 2 µg/mL (≈ 0.828 µM) | > 300 µg/mL | 0.5 to 2 µg/mL | 4 µg/mL (≈ 1.66 µM) | 16 µg/mL (≈ 6.62 µM) | – | – | – | –
3 | N=C(N)NCCC[C@H](NC(=O)CCNC(=O)[C@H](CCCNC(=N)N)NC(=O)[C@@H](CCCNC(=N)N)NC(=O)[C@@H](N)CCCNC(=N)N)C(=O)N[C@H](CCCNC(=N)N)C(=O)N[C@@H](CCCNC(=N)N)C(=O)NCCC(=O)N[C@@H](CCCNC(=N)N)C(=O)N[C@H](CCCNC(=N)N)C(=O)N[C@@H](CCCNC(=N)N)C(=O)N[C@H](CCCNC(=N)N)C(=O)NCCC(=O)N[C@@H](CCCNC(=N)N)C(=O)N[C@H](CCCNC(=N)N)C(=O)N[C@@H](CCCNC(=N)N)C(=O)N[C@H](CCCNC(=N)N)C(N)=O [SEQ ID NO: 15, RrR-(Apr)-RrR-(Apr)-RrRr-(Apr)-RrRr-NH2] (H-R[dR]R[βAla]R[dR]R[βAla]R[dR]R[dR][βAla]R[dR]R[dR]-NH2) | 0.5 µg/mL (≈ 0.207 µM) | 0.25 to 0.5 µg/mL | – | 0.5 µg/mL (≈ 0.207 µM) | 0.5 µg/mL (≈ 0.207 µM) | ~100% | 1 µg/mL (≈ 0.414 µM) | 0.25 µg/mL (≈ 0.103 µM) | 0.5 µg/mL (≈ 0.207 µM) | 0.25 µg/mL (≈ 0.103 µM) | 0.25 µg/mL (≈ 0.103 µM) | 0.5 µg/mL (≈ 0.207 µM) | > 300 µg/mL | 0.12 to 0.25 µg/mL | 0.5 µg/mL (≈ 0.207 µM) | 1 µg/mL (≈ 0.414 µM) | 16 µg/mL (≈ 6.62 µM) | 64 µg/mL (≈ 26.5 µM) | 32 µg/mL (≈ 13.2 µM) | –
4 | N=C(N)NCCC[C@@H](N)C(=O)N[C@@H](CCCNC(=N)N)C(=O)N[C@H](CCCNC(=N)N)C(=O)NCCCCC(=O)N[C@H](CCCNC(=N)N)C(=O)N[C@@H](CCCNC(=N)N)C(=O)NCCCCC(=O)N[C@H](CCCNC(=N)N)C(=O)N[C@@H](CCCNC(=N)N)C(=O)NCCCCC(=O)N[C@H](CCCNC(=N)N)C(=O)N[C@@H](CCCNC(=N)N)C(=O)N[C@H](CCCNC(=N)N)C(N)=O [SEQ ID NO: 28, rRr-(Ava)-rR-(Ava)-rR-(Ava)-rRr-NH2] (H-[dR]R[dR][Ava][dR]R[Ava][dR]R[Ava][dR]R[dR]-NH2) | >32 µg/mL | 4 µg/mL (≈ 2.13 µM) | 32 µg/mL (≈ 17.1 µM) | 4 µg/mL (≈ 2.13 µM) | 1 µg/mL (≈ 0.533 µM) | – | 2 µg/mL (≈ 1.07 µM) | 4 µg/mL (≈ 2.13 µM) | 8 µg/mL (≈ 4.26 µM) | 1 µg/mL (≈ 0.533 µM) | 0.5 µg/mL (≈ 0.266 µM) | 8 µg/mL (≈ 4.26 µM) | – | – | – | – | – | – | – | Activity at 24 h MIC50 against Candida spp. ([19]; 24 h): 8 µg/mL; Activity at 24 h MIC90 against Candida spp. ([19]; 24 h): >32 µg/mL; Activity at 48 h MIC50 against Candida spp. ([19]; 48 h): 8 µg/mL; Activity at 48 h MIC90 against Candida spp. ([19]; 48 h): >32 µg/mL; MIC Range Cryptococcus spp. [23]: 2 to 8 µg/mL
5 | N=C(N)NCCC[C@@H](N)C(=O)N[C@@H](CCCNC(=N)N)C(=O)N[C@H](CCCNC(=N)N)C(=O)NCCCCCCCC(=O)N[C@H](CCCNC(=N)N)C(=O)N[C@@H](CCCNC(=N)N)C(=O)N[C@H](CCCNC(=N)N)C(=O)NCCCCCCCC(=O)N[C@H](CCCNC(=N)N)C(=O)N[C@@H](CCCNC(=N)N)C(=O)N[C@H](CCCNC(=N)N)C(=O)N[C@@H](CCCNC(=N)N)C(=O)NCCCCCCCC(=O)N[C@H](CCCNC(=N)N)C(=O)N[C@@H](CCCNC(=N)N)C(=O)N[C@H](CCCNC(=N)N)C(=O)N[C@@H](CCCNC(=N)N)C(N)=O [SEQ ID NO: 29, rRr-(Aoa)-rRr-(Aoa)-rRrR-(Aoa)-rRrR-NH2] (H-[dR]R[dR][Aoc][dR]R[dR][Aoc][dR]R[dR]R[Aoc][dR]R[dR]R-NH2) | 0.5 µg/mL (≈ 0.19 µM) | 0.5 µg/mL (≈ 0.19 µM) | 0.5 µg/mL (≈ 0.19 µM) | 0.5 µg/mL (≈ 0.19 µM) | 0.5 µg/mL (≈ 0.19 µM) | ~100% | 1 µg/mL (≈ 0.381 µM) | 0.5 µg/mL (≈ 0.19 µM) | 0.5 µg/mL (≈ 0.19 µM) | 0.5 µg/mL (≈ 0.19 µM) | 0.5 µg/mL (≈ 0.19 µM) | 0.5 µg/mL (≈ 0.19 µM) | > 300 µg/mL | 0.5 µg/mL (≈ 0.19 µM) | – | – | 16 µg/mL (≈ 6.09 µM) | 32 µg/mL (≈ 12.2 µM) | 16 µg/mL (≈ 6.09 µM) | Kidney to Plasma Concentration Ratio Day 7 ([24]; 6 hrs post dose of 7.5 mg/kg IP once daily, Day 7, mean ± SD, n = 3): 361 ± 322; Kidney to Plasma Concentration Ratio Day 1 ([24]; 6 hrs post dose of 7.5 mg/kg IP, Day 1, mean ± SD, n = 3): 236 ± 233; Day 1 AUC ratio, kidney to plasma ([24]; IP 7.5 mg/kg, Day 1): 158; Tolerated dose (highest dose evaluated) [25]: 7.5 mg/kg/day; Clinical or hematological adverse effects ([25]; up to 7.5 mg/kg/day): No significant clinical or hematological adverse effects were observed; MIC Range Coccidioides species ([7]; N = 10 strains): 0.06 to 0.25 µg/mL
